# Test results from ChEMBL document CHEMBL4376804, “Review of Transient Receptor Potential Canonical (TRPC5) Channel Modulators and Diseases” (J Med Chem, 2019).
# How the values were obtained:
# [1] = molecular target: T1, Short transient receptor potential channel 3 (Homo sapiens, UniProt Q13507); experiment: Inhibition of human TRPC3 expressed in HEK293 cells assessed as reduction in carbachol-induced membrane potential by FMP-2 dye based assay; format: cell-based
# T1 sequence (Q13507 whole entry): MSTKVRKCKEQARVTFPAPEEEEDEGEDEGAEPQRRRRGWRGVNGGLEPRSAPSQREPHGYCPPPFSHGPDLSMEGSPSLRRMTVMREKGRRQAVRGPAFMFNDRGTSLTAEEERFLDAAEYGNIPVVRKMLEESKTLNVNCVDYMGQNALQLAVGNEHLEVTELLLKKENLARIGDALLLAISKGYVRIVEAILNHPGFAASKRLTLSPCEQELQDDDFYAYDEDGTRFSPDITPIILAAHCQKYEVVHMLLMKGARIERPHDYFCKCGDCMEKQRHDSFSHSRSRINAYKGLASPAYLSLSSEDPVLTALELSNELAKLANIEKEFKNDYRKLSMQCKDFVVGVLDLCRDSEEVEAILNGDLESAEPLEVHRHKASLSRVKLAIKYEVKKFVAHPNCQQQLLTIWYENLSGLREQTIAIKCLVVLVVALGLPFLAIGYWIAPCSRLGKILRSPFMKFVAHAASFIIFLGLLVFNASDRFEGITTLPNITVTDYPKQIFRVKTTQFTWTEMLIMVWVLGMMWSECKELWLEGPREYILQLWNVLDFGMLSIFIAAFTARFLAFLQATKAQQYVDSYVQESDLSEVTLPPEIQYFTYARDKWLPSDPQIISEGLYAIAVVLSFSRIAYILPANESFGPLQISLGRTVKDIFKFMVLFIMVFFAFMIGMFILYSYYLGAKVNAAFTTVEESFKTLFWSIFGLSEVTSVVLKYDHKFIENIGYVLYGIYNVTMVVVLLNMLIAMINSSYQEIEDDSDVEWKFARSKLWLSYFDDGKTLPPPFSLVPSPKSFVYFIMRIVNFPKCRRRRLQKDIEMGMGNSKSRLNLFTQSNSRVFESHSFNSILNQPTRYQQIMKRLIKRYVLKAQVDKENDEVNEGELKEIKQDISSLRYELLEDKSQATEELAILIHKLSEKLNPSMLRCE
# [2] = molecular target: T1, Short transient receptor potential channel 3; experiment: Inhibition of human TRPC3 expressed in CHO cells assessed as reduction in OAG-induced calcium influx after 10 mins by fluo-4/AM dye based FLIPR assay; format: cell-based
# [3] = molecular target: T2, Short transient receptor potential channel 4 (Mus musculus, UniProt Q9QUQ5); experiment: Inhibition of mouse TRPC4 by FLIPR assay
# T2 sequence (Q9QUQ5 whole entry): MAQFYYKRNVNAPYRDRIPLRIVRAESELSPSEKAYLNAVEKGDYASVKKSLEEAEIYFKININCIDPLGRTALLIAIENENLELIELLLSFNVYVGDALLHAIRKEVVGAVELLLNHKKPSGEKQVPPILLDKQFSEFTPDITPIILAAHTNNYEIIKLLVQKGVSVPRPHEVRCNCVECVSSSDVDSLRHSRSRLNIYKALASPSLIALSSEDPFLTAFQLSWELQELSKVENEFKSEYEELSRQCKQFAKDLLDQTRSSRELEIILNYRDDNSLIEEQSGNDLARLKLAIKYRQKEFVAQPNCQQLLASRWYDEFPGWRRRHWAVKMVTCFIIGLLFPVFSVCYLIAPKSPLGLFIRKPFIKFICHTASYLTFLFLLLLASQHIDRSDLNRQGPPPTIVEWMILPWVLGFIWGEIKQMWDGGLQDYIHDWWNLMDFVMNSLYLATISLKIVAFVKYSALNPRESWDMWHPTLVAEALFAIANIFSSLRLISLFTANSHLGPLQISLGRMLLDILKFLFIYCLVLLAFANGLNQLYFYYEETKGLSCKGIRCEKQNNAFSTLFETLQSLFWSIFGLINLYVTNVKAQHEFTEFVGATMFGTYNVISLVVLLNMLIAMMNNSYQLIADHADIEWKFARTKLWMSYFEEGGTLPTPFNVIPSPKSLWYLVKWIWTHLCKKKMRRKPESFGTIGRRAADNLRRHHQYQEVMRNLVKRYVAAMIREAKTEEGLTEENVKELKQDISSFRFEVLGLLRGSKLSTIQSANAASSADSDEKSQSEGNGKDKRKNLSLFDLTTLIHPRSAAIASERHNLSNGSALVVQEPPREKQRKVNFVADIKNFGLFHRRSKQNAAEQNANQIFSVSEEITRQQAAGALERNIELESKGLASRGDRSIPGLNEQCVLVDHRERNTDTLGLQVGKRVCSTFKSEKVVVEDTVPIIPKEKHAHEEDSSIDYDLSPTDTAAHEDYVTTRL
# [4] = molecular target: Transient receptor potential cation channel subfamily V member 2 (Rattus norvegicus, UniProt Q9WUD2); experiment: Inhibition of YFP-tagged rat TRPV2 expressed in HEK293 cells assessed as reduction in calcium level by fluo-4 dye based fluorescence assay; format: cell-based
# [5] = molecular target: Transient receptor potential cation channel subfamily V member 4 (Mus musculus, UniProt Q9EPK8); experiment: Inhibition of YFP-tagged mouse TRPV4 expressed in HEK293 cells assessed as reduction in calcium level by fluo-4 dye based fluorescence assay; format: cell-based
# [6] = organism: Mus musculus; experiment: Selectivity ratio of IC50 for YFP-tagged mouse TRPC7 expressed in thapsigargin treated HEK293 cells to IC50 for mouse TRPC5 expressed in thapsigargin treated HEK293/TREx cells; format: cell-based
# [7] = organism: Mus musculus; experiment: Selectivity ratio of IC50 for YFP-tagged mouse TRPC4 beta expressed in thapsigargin treated HEK293 cells co-expressing M3 receptor to IC50 for mouse TRPC5 expressed in thapsigargin treated HEK293/TREx cells; format: cell-based
# Transient receptor potential cation channel subfamily V member 4, sequence (Q9EPK8 whole entry): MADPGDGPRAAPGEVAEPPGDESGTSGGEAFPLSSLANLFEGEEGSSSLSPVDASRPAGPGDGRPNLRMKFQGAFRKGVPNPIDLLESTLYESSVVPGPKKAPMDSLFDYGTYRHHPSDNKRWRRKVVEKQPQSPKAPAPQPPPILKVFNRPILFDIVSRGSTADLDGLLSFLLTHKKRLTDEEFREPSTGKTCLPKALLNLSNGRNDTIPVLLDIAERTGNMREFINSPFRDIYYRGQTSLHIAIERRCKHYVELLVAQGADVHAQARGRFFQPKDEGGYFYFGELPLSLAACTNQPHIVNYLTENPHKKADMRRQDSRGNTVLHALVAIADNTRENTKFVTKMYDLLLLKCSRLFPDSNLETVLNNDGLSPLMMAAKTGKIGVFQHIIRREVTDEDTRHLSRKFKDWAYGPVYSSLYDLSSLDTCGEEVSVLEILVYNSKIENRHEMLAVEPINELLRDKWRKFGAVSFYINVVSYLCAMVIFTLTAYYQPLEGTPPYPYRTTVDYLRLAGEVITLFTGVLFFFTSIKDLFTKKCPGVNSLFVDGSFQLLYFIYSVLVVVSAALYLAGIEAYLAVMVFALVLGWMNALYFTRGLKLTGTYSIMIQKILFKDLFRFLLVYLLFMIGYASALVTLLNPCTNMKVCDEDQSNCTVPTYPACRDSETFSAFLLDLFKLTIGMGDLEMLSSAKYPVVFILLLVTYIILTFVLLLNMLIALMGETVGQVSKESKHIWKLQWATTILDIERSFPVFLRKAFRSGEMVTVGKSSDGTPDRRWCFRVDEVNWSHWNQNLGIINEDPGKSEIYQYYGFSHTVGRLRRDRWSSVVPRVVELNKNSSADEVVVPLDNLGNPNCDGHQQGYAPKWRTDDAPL
# Transient receptor potential cation channel subfamily V member 2, sequence (Q9WUD2 whole entry): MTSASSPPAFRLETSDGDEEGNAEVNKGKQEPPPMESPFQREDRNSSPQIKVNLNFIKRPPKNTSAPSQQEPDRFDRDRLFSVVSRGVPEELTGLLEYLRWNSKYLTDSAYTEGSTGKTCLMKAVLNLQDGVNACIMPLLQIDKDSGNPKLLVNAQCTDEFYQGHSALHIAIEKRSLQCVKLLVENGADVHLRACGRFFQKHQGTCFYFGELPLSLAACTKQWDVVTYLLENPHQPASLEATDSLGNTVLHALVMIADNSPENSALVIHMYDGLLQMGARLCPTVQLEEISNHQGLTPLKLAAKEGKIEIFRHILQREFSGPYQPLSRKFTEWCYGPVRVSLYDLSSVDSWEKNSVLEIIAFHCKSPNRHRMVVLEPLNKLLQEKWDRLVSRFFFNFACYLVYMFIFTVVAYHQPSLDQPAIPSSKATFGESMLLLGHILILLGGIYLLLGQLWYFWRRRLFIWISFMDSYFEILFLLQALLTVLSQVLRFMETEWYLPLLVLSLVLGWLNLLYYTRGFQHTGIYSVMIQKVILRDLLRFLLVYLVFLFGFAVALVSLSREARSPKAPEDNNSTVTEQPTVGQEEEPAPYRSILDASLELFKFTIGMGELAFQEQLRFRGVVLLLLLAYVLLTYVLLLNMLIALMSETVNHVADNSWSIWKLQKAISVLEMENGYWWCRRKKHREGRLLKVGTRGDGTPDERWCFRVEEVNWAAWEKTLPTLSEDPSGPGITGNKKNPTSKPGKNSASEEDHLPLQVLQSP
Structure (SMILES),IC50 [1] [µM],also measured
CC1CCCCN1c1nc2ccccc2[nH]1 (configuration not stated),> 100,
N#Cc1ccc(O[C@@H]2c3ccccc3C[C@H]2N2CCC[C@@H](N)C2)c(Cl)c1,,IC50 [2]: 0.282 µM; IC50 [3]: > 10 µM
c1ccc2[nH]c(N3CCCCC3)nc2c1,> 100,
c1ccc2[nH]c(N3CCCC3)nc2c1,> 100,
CC1CCN(c2nc3ccccc3[nH]2)CC1,19.3,
Clc1ccc(Cn2c(CN3CCCC3)nc3ccccc32)cc1 [CLEMIZOLE],,IC50 [4]: > 20 µM; IC50 [5]: > 20 µM; Ratio IC50 [6]: 10; Ratio IC50 [7]: 6
c1ccc2[nH]c(NC34CC5CC(CC(C5)C3)C4)nc2c1,> 100,
CC1CCN(c2nc3cc(Cl)ccc3[nH]2)CC1,30.4,
